Test results: ChEMBL document CHEMBL1159048, “Asymmetric syntheses of daedalin A and quercinol and their tyrosinase inhibitory activity” (Bioorg Med Chem Lett, 2010)

Tests used:
[1] = biological target: T1, Tyrosinase (Agaricus bisporus) (UniProt O42713); assay: Inhibition of mushroom tyrosinase at 400 uM
T1 sequence (whole entry): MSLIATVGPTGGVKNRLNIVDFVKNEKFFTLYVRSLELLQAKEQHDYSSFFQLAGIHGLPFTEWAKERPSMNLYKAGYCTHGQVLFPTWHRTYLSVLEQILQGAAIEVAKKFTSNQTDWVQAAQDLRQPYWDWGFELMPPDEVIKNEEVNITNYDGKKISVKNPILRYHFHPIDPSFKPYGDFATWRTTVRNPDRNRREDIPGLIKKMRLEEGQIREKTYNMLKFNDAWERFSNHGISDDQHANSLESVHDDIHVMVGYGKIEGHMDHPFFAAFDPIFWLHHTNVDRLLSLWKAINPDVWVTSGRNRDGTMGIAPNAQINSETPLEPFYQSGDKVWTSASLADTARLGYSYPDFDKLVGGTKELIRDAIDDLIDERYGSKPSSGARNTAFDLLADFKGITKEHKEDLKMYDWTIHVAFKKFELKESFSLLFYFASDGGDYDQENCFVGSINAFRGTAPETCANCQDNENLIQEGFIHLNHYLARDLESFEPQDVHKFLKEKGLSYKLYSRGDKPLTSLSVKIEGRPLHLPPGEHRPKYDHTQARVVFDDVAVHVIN

[2] = biological target: T2, Tyrosinase (Agaricus bisporus, UniProt O42713); assay: Inhibition of mushroom tyrosinase
T2 sequence (O42713 whole entry): T1 sequence (whole entry)

[3] = biological target: T1, Tyrosinase (Agaricus bisporus); assay: Inhibition of mushroom tyrosinase at 100 uM
[4] = biological target: T1, Tyrosinase (Agaricus bisporus); assay: Inhibition of mushroom tyrosinase at 200 uM

C[C@]1(CO)C=Cc2cc(O)ccc2O1 [DAEDALIN A]
inhibition [1]: 61.6%
IC50 [2]: 208 µM
inhibition [3]: 28.6%
inhibition [4]: 48.4%
